Experimental data reported in US20110189161A1, “NUTRIGENOMICS METHODS AND COMPOSITIONS” (priority 2008, published 2011).
Read-outs that look alike come from different tables or passages of the source. Bridge positions count the residues as written; N and C are the ends. Square brackets hold non-standard residues; d marks the D form. Peptide text beside a SMILES is read from it. * marks the point of attachment. Ileψ(thiazoline)Cys = CC[C@H](C)[C@H](N)C1=N[C@H](C(=O)*)CS1; dOrn = NCCC[C@@H](N)C(=O)O

Experiments:
methadone patients = assay: Compliance with Trexan after rapid detoxification of methadone patients; type: in vivo, human; conditions: P<0.0001
Excerpt: It may also be interesting too further test this hypothesis with the sublingual combination of the partial opiate mu receptor agonist buprenorphrine.

[1] = rats; cited from earlier work
enkephalinase = conditions: cited from earlier work; for CSF EKA / plasma EKA: human sufferers
rat skin = conditions: applied to rat skin; cited from earlier work
[2] = tested on: nucleus accumbens enkephalins; conditions: administered into the nucleus accumbens; cited from earlier work
[3] = in vivo; cited from earlier work
mice [4] = conditions: cited from earlier work
cats = conditions: peptide 0.35 mg/kg and D-phenylalanine 10 mg/kg; cited from earlier work
[5] = 250 mg/kg, reversed by naloxone; cited from earlier work
rats [6] = conditions: morphine 5 mg/kg, D-phenylalanine 100 mg/kg; similar degree; cited from earlier work
rats [7] = conditions: injections in rats; cited from earlier work
mice [8] = assay: Alcohol preference in mice (acceptance and 14 day preference test); type: in vivo; conditions: d-phenylalanine 500 mg/kg/day 18 days, hydrocinnamic acid 25 micrograms icv
paw edema by carrageenin = conditions: topical 1% ointment, rats; cited from earlier work
[9] = oral oil-based paste, free access to food, three of six animals; cited from earlier work
[10] = with soya-lecithin, n-octanol-phosphate buffer; cited from earlier work
[11] = tested on: brain dopamine and serotonin flux; conditions: intravenously, cited from earlier work
CYP2D6 = target: T1, CYP2D6 (Homo sapiens, UniProt P10635); conditions: extensive but not poor metabolizers of debrisoquine/sparteine; cited from earlier work
T1 construct: host or cells: patients on methadone (in vivo)

rats [12] = conditions: naloxone 0.1 mg/kg; species not stated; cited from earlier work
[13] = tested on: rat caudate nucleus synaptosomal preparation; conditions: cited from earlier work
[14] = tested on: SH-SY5Y human neuroblastoma cells; conditions: cited from earlier work
[15] = tested on: intracranial self-stimulation; conditions: nucleus accumbens microinjections; cited from earlier work
[16] = tested on: patients receiving opiates for chronic non-malignant pain; conditions: concurrent treatment, author's clinical experience; cited from earlier work
[17] = tested on: release of serotonin in the lateral hypothalamus; conditions: systemic administration, long lasting and dose dependent; cited from earlier work
patients with CRPS1 = conditions: 3 of 5 patients; unchanged in the other 2; cited from earlier work
[18] = tested on: obese subjects genotyped for DRD2; assay: Chromium picolinate body composition as a function of DRD2 genotype; type: in vivo, human; conditions: subjects possessing a DRD2 A1 allele
Procedure: A Case Study: Chromium and Dopamine Genes. The inventors embarked on a study with chromium picolinate to test out the principles of nutrigenomics. In this study they genotyped obese subjects for the dopamine D2 receptors gene (DRD2). The subjects were assessed for scale weight and for percent body fat. The subjects were divided into matched placebo and chromium picolinate (CrP) groups. […] Moreover, the inventors propose for the first time that mixed effects now observed with CrP administration in terms of body composition, may be resolved by typing the patient via DRD2 genotyping prior to treatment with chromium salts.

obese women = conditions: cited from earlier work
Over-Eating [19] = conditions: after six months, p < 0.001 between groups; cited from earlier work
Over-Eating [20] = conditions: cited from earlier work
Over-Eating [21] = conditions: 400 mcg, cited from earlier work
[22] = exercise training combined with CrP supplementation

T1 sequence (P10635 whole entry): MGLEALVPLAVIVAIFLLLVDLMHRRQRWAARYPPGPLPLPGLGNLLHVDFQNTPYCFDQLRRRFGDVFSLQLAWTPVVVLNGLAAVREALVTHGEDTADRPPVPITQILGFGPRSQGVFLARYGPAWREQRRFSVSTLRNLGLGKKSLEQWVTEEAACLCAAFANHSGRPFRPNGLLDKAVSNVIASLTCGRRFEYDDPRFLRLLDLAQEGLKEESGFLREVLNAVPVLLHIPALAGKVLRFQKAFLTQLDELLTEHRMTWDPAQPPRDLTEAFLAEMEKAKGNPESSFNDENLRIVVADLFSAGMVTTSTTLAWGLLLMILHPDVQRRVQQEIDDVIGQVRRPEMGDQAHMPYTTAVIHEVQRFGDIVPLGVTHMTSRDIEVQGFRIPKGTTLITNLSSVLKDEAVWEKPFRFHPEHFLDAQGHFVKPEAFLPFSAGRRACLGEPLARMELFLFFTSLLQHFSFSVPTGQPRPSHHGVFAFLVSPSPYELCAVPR

Cl.O=C1CC[C@@]2(O)[C@H]3Cc4ccc(O)c5c4[C@@]2(CCN3CC2CC2)[C@H]1O5 [Trexan®]
average number of days of compliance (methadone patients): 37 days

CCCCCCCCC1CCCCC1=O (centres unmarked) [2-n-octylcyclohexanone]
percutaneous absorption of ketoprofen and indomethacin from gel ointments [1]: Pronounced effects

C[C@H](CS)C(=O)N1CCC[C@H]1C(=O)O [captopril]
CSF EKA (enkephalinase): decreased

CC(C)[C@@H]1CC[C@@H](C)C[C@H]1O [l-menthol]
Plasma concentrations of KPF with addition of the enhancer to gel ointment (rat skin): no significant enhancing effect

N[C@H](Cc1ccccc1)C(=O)O [D-phenylalanine]
antinociception induced by intra-periaqueductal gray injection of morphine [2]: potentiated
analgesia [3]: naloxone reversible analgesia
analgesia (mice [4]): long-lasting, naloxone-reversible analgesia
plasma EKA (enkephalinase): decreased
analgesia on coadministration with peptide IKB-901 (cats): enhances analgesia
analgesia [5]: elicits analgesia
pain reaction thresholds (rats [6]): increase
CWS analgesia and morphine analgesia (rats [7]): decrease CWS analgesia while increasing morphine analgesia
alcohol preference (mice [8]): significantly reduced

COc1ccc2c(c1)c(CC(=O)O)c(C)n2C(=O)c1ccc(Cl)cc1 [indomethacin]
paw edema by carrageenin (paw edema by carrageenin): markedly inhibited

CC(C(=O)O)c1cccc(C(=O)c2ccccc2)c1 (racemic) [Ketoprofen]
concentrations in plasma [9]: no detectable concentrations
paw edema by carrageenin (paw edema by carrageenin): markedly inhibited
partition into n-octanol [10]: improves

CC[C@H](C)[C@H](N)C1=N[C@H](C(=O)N[C@@H](CC(C)C)C(=O)N[C@H](CCC(=O)O)C(=O)N[C@H](C(=O)N[C@H]2CCCCNC(=O)[C@H](CC(N)=O)NC(=O)[C@@H](CC(=O)O)NC(=O)[C@H](Cc3cnc[nH]3)NC(=O)[C@@H](Cc3ccccc3)NC(=O)[C@H]([C@@H](C)CC)NC(=O)[C@@H](CCCN)NC2=O)[C@@H](C)CC)CS1 [bacitracin] ({Ileψ(thiazoline)Cys}-L[dE]IK[dOrn]I[dF]H[dD]N; lactam 4-C)
analgesia (mice [4]): long-lasting, naloxone-reversible analgesia

CC(C)(C)C1CCC(=O)CC1 [4-tert-butylcyclohexanone]
percutaneous absorption of ketoprofen and indomethacin from gel ointments [1]: significantly lower

CC(C)CC(N(C)C)C1(c2ccc(Cl)cc2)CCC1 (centres unmarked) [sibutramine]
serotonin and dopamine concentrations in the striatal and hypothalamic brain regions ([11]; higher doses): increased
serotonin and dopamine concentrations in dialysates ([11]; low doses): no effect

Fc1ccc([C@@H]2CCNC[C@H]2COc2ccc3c(c2)OCO3)cc1 [paroxetine]
steady-state plasma concentrations of (R)-methadone (CYP2D6): increases

COc1ccc(C[C@H](N)C(=O)N[C@H]2[C@@H](O)[C@H](n3cnc4c(N(C)C)ncnc43)O[C@@H]2CO)cc1 [puromycin]
analgesia (mice [4]): long-lasting, naloxone-reversible analgesia

CC1CCCC(C)C1=O (centres unmarked) [2,6-dimethyl]
percutaneous absorption of ketoprofen and indomethacin from gel ointments [1]: significantly lower

CC(C)(C)C1CCCCC1=O (centres unmarked) [2-tert-butylcyclohexanone]
percutaneous absorption of ketoprofen and indomethacin from gel ointments [1]: markedly enhanced

CN1CC[C@]23c4c5ccc(O)c4O[C@H]2[C@@H](O)C=C[C@H]3[C@H]1C5 [morphine]
pain reaction thresholds (rats [6]): increase

C=CCN1CC[C@]23c4c5ccc(O)c4O[C@H]2C(=O)CC[C@@]3(O)[C@H]1C5 [Naloxone]
antinociception induced by intra-periaqueductal gray injection of morphine [2]: attenuated
analgetic effect of peptide IKB-901 (rats [12]): prevents

CCn1cc(C(=O)O)c(=O)c2ccc(Cc3ccccc3)nc21 [Amfoelic acid]
release of dopamine formed from 14C-phenylalanine [13]: net release

CN1[C@@H]2CC[C@H]1C[C@@H](OC(c1ccccc1)c1ccccc1)C2 [Cogentin]
release of dopamine formed from 14C-phenylalanine [13]: increased

OC[C@H]1O[C@@H](OCCc2ccc(O)cc2)[C@H](O)[C@@H](O)[C@@H]1O [Salidroside]
H2O2-induced loss of mitochondrial membrane potential and elevation of intracellular calcium level ([14]; SH-SY5Y cells): dose-dependently restored
antioxidant property [14]: potent

C[C@H](NC(=O)[C@@H](CC(=O)NO)Cc1ccccc1)C(=O)O [kelatrophan]
intracranial self-stimulation [15]: reduced

NC(Cc1ccccc1)C(=O)O (racemic) [DL-phenylalanine (DLPA), DL-phenylalanine]
pain relief in patients receiving opiates [16]: potentiate

CC(N)Cc1ccccc1 (centres unmarked) [Amphetamine]
release of dopamine formed from 14C-phenylalanine [13]: increased

O=C(O)CNC(=O)C(CS)Cc1ccccc1 (centres unmarked) [thiorphan]
CSF EKA (enkephalinase): decreased
plasma EKA (enkephalinase): decreased
potency as enkephalinase inhibitor among the three drugs (enkephalinase; plasma and CSF): most potent

N[C@@H](Cc1c[nH]c2ccc(O)cc12)C(=O)O [5-HTP, 5-hydroxy-1-tryptophan]
5-HT in dialysates [17]: immediate increase

CC12CCC(CC1)C(C)(C)O2 [1,8-cineole]
Plasma concentrations of KPF with addition of the enhancer to gel ointment (rat skin): no significant enhancing effect

O=C(O)Cc1ccccc1Nc1c(Cl)cccc1Cl [diclofenac sodium]
paw edema by carrageenin (paw edema by carrageenin): markedly inhibited

O=[N+]([O-])O[C@H]1CO[C@H]2[C@@H]1OC[C@H]2O[N+](=O)[O-] [ISDN, isosorbide dinitrate]
Visual Analog Scale pain (patients with CRPS1): declined

O=C(O)CCc1ccccc1 [hydrocinnamic acid]
alcohol preference (mice [8]): significantly reduced

Chromium Picolinate
any parameter of weight and body fat change [18]: no significance
weight change (obese women; CrP supplementation alone, 63 days): gain, while
insulin response to an oral glucose load (obese women; [22]): lowered
weight change (obese women; [22]): loss
lean body mass (Over-Eating [19]): an increase in
body composition, body fat, nonfat mass (Over-Eating [20]; 00 mcg or 400 mcg, two double-blind placebo controlled studies): body composition improvement, loss of body fat, gain in nonfat mass
changes in Body Mass composition indicies compared with placebo (Over-Eating [20]; 200 and 400 mcg, 72 days): about significant
weight (p < 0.001) and body fat (p < 0.004) lost compared with placebo (Over-Eating [21]; 90 days): significantly more
reduction in body fat (Over-Eating [21]; p < 0.001): greater reduction
body composition (Over-Eating [21]; p < 0.004): improve body
